EC50 data for 15 compounds are collected here from patent US12281119B2, “Imidazo[2,1-f][1,2,4]triazin-4-amine derivatives as TLR7 agonist” (BEIGENE, LTD., priority 2019, dated 2025).

The target of one assay is T1, human TLR7 (Homo sapiens, UniProt Q9NYK1).
T1 sequence (Q9NYK1 27-1049): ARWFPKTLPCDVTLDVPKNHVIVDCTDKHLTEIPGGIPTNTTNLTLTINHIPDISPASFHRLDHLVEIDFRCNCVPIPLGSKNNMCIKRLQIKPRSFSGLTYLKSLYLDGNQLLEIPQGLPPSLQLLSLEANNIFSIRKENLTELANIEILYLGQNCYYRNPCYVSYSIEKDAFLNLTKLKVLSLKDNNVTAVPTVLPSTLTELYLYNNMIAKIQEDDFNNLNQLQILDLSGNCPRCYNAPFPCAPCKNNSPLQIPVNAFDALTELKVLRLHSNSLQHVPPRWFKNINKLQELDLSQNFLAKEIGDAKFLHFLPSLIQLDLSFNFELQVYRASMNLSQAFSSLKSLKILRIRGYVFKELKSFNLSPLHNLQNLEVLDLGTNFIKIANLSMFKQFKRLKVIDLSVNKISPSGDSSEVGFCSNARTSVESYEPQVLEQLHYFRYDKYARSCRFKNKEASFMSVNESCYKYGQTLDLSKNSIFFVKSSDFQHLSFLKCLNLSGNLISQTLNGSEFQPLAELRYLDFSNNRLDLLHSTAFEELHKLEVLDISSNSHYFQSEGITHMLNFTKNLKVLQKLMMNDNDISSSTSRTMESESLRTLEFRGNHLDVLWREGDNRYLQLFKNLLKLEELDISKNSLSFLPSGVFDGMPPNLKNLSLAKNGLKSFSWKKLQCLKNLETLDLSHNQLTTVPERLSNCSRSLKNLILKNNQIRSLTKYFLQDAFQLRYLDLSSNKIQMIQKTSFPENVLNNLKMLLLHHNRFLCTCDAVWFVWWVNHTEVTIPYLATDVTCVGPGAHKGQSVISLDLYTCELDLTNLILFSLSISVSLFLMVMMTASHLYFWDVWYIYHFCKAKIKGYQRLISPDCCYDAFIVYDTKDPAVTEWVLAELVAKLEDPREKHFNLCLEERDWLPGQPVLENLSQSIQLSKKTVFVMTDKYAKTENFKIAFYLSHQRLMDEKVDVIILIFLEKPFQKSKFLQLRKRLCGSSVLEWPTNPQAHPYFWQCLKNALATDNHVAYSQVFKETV
Nature of the assay: TLR7 stimulation determined using HEK-Blue Detection. Also noted: expressed in transfected cells; host or cells: HEK293 (HEK-Blue hTLR7). Particulars: HEK-Blue hTLR7 cells, HEK-Blue Detection (A77-A124), 16 hr, relative to Resiquimod maximum. It counts as cell-based. The essentials: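 HEK-Blue hTLR7 cells (HEK293 with NF-κB/AP-1-driven SEAP reporter), 40000 cells/well, treated with 10-point dilutions from 0.04 nM to 10 μM final in 0.1% DMSO for 16 h at 37° C. SEAP read as OD 620-655 nm; EC50 derived from % of maximum activation with resiquimod.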

The next assay concerns the target T2, human TLR 8 protein (Homo sapiens, UniProt Q9NR97).
T2 construct: expressed in transfected cells; host or cells: HEK293 (HEK-Blue hTLR8)
T2 sequence (Q9NR97 27-1041): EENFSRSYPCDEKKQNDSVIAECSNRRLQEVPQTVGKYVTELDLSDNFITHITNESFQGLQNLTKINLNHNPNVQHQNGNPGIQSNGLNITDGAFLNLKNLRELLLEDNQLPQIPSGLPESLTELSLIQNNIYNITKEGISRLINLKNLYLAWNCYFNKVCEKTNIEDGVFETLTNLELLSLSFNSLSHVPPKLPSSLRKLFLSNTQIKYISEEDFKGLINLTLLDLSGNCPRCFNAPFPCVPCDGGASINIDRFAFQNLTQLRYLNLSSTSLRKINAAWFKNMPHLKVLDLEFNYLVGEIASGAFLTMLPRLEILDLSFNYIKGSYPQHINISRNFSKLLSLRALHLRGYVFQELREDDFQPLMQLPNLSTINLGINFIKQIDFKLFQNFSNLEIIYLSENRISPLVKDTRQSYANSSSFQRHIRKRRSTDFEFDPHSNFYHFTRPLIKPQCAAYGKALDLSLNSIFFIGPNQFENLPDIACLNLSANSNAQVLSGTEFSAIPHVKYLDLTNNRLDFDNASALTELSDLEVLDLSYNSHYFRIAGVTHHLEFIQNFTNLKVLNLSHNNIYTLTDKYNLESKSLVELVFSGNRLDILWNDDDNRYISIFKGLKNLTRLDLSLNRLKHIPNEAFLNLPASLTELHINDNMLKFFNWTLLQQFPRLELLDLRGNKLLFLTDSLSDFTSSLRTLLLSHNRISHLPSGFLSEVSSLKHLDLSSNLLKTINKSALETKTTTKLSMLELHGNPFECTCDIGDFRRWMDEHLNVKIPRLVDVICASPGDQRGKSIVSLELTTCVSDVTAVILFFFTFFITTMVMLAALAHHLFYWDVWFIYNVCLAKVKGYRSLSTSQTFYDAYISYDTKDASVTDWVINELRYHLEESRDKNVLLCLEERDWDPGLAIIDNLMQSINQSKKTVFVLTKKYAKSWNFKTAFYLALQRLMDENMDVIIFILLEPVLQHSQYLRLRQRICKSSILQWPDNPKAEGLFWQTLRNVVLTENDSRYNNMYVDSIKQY
Nature of the assay: TLR8 stimulation determined using HEK-Blue Detection. The assay is classed as cell-based. As to conditions: HEK-Blue hTLR8 cells, 16 hr, relative to Resiquimod or Motolimod maximum. An outline of the steps:
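HEK-Blue hTLR8 cells with NF-κB/AP-1-driven SEAP reporter, 40000 cells/well, treated with 10-point dilutions (1 nM-10 uM final, 0.1% DMSO) for 16 hr at 37° C. SEAP read as OD 620-655 nm. EC50 derived from percent of maximum activation set by Resiquimod or Motolimod.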

Each structure is given as a SMILES string. Some results are limits rather than exact numbers.

On to `CCCC(CCO)Oc1nc(N)c2ncc(Cc3ccc(OCCNC)cc3)n2n1` (stereo not drawn) [Compound A85, 3-((4-amino-7-(4-(2-(methylamino)ethoxy)benzyl)imidazo [2,1-f][1,2,4]triazin-2-yl)oxy)hexan-1-ol], for which the EC50 worked out at 4.5 nM at human TLR7 and 41 nM at human TLR 8 protein.
Take `CCCC(CCO)Oc1nc(N)c2ncc(Cc3ccc(OCCCNC)nc3)n2n1` (stereo not drawn) [Compound A86, 3-((4-amino-7-((6-(3-(methylamino)propoxy)pyridin-3-yl)methyl)imidazo[2,1-f][1,2,4]triazin-2-yl)oxy)hexan-1-ol]: the EC50 was determined as 57.7 nM at human TLR7 and 541 nM on human TLR 8 protein.
With `CCCC(CCC)Oc1nc(N)c2ncc(Cc3ccc(OCCNC)nc3)n2n1` [Compound A87, 2-(heptan-4-yloxy)-7-((6-(2-(methylamino)ethoxy)pyridin-3-yl)methyl)imidazo[2,1-f][1,2,4]triazin-4-amine], the EC50 at human TLR7 is 10.5 nM; on human TLR 8 protein it was 434 nM.
Consider `CNCCOc1ccc(Cc2cnc3c(N)nc(OCC4CCCO4)nn23)cn1` (stereo not drawn) [Compound A88, 7-((6-(2-(methylamino)ethoxy)pyridin-3-yl)methyl)-2-((tetrahydrofuran-2-yl)methoxy)imidazo[2,1-f][1,2,4]triazin-4-amine], for which the EC50 at human TLR7 and on human TLR 8 protein was over 10000 nM throughout.
Take `CC[C@H](C)Oc1nc(N)c2ncc(Cc3ccc(OCCNC)nc3)n2n1` [Compound A89, (S)-2-(sec-butoxy)-7-((6-(2-(methylamino)ethoxy)pyridin-3-yl)methyl)imidazo[2,1-f][1,2,4]triazin-4-amine]: the EC50 is 10 nM at human TLR7 and 199 nM at human TLR 8 protein.
For `CCC[C@H](C)Oc1nc(N)c2ncc(Cc3ccc(OCCNC)nc3)n2n1` [Compound A90, (S)-7-((6-(2-(methylamino)ethoxy)pyridin-3-yl)methyl)-2-(pentan-2-yloxy)imidazo[2,1-f][1,2,4]triazin-4-amine], in that order: 8.9 nM and 112 nM.
On to `CCCC(CCO)Oc1nc(N)c2ncc(Cc3ccc(OCCNC)c(F)c3)n2n1` (stereo not drawn) [Compound A91, 3-((4-amino-7-(3-fluoro-4-(2-(methylamino)ethoxy)benzyl)imidazo[2,1-f][1,2,4]triazin-2-yl)oxy)hexan-1-ol], for which the EC50 was 2.1 nM on human TLR7 and 15 nM on human TLR 8 protein.
Consider `CCCC(CCO)Oc1nc(N)c2ncc(Cc3ccc(N(C)CCNC)cc3)n2n1` (stereo not drawn) [Compound A94, 3-((4-amino-7-(4-(methyl(2-(methylamino)ethyl)amino)benzyl)imidazo[2,1-f][1,2,4]triazin-2-yl)oxy)hexan-1-ol], for which the figures for the EC50 at human TLR7 and at human TLR 8 protein were 13.8 nM and 146 nM, respectively.
On to `CCCC(CCO)Oc1nc(N)c2ncc(Cc3ccc(CCNC)cc3)n2n1` (stereo not drawn) [Compound A95, 3-((4-amino-7-(4-(2-(methylamino)ethyl)benzyl)imidazo[2,1-f][1,2,4]triazin-2-yl)oxy)hexan-1-ol], for which the EC50 is 8 nM on human TLR7 and 19 nM at human TLR 8 protein.
For `CCCC(CCO)Oc1nc(N)c2ncc(Cc3ccc(OCCNC)nc3OC)n2n1` (stereo not drawn) [Compound A96, 3-((4-amino-7-((2-methoxy-6-(2-(methylamino)ethoxy)pyridin-3-yl)methyl)imidazo[2,1-f][1,2,4]triazin-2-yl)oxy)hexan-1-ol], the EC50 on human TLR7 is 4.3 nM; at human TLR 8 protein, 29 nM.
For `CCCC(CCO)Oc1nc(N)c2ncc(Cc3ccc(OCCNC)cc3F)n2n1` (stereo not drawn) [Compound A97, 3-((4-amino-7-(2-fluoro-4-(2-(methylamino)ethoxy)benzyl)imidazo[2,1-f][1,2,4]triazin-2-yl)oxy)hexan-1-ol], the EC50 at human TLR7 is 1 nM; at human TLR 8 protein, 10 nM.
Regarding `CCCC(CCO)Oc1nc(N)c2ncc(Cc3ccc(OCCNC)c(OC)c3)n2n1` (stereo not drawn) [Compound A98, 3-((4-amino-7-(3-methoxy-4-(2-(methylamino)ethoxy)benzyl)imidazo[2,1-f][1,2,4]triazin-2-yl)oxy)hexan-1-ol], the EC50 on human TLR7 worked out at 11 nM; at human TLR 8 protein it was 163 nM.
Turning to `CCC[C@H](C)Oc1nc(N)c2ncc(Cc3ccc(OCCNC)c(F)c3)n2n1` [Compound A99, (S)-7-(3-fluoro-4-(2-(methylamino)ethoxy)benzyl)-2-(pentan-2-yloxy)imidazo[2,1-f][1,2,4]triazin-4-amine], the EC50 on human TLR7 worked out at 14.4 nM; on human TLR 8 protein, 129 nM.
The corresponding values for `CCC[C@H](C)Oc1nc(N)c2ncc(Cc3ccc(OCCNC)cc3)n2n1` [Compound A100, (S)-7-(4-(2-(methylamino)ethoxy)benzyl)-2-(pentan-2-yloxy)imidazo[2,1-f][1,2,4]triazin-4-amine] are 15 nM and 195 nM.
The corresponding values for `CCCC(CCO)Oc1nc(N)c2ncc(Cc3ccc(OCCNC)c(Cl)c3)n2n1` (stereo not drawn) [Compound A102, 3-((4-amino-7-(3-chloro-4-(2-(methylamino)ethoxy)benzyl)imidazo[2,1-f][1,2,4]triazin-2-yl)oxy)hexan-1-ol] are 3.7 nM and 134 nM.
